Assay results: patent publication US6794396B2, “Substituted pyridines useful for inhibiting cholesteryl ester transfer protein activity” (Pharmacia Corporation, priority 1998, dated 2004)
Read-outs that look alike come from different tables or passages of the source.

Experiments:
CETP = biological target: T1, CETP (Homo sapiens, UniProt P11597); assay: CETP activity in vitro: transfer of [3H]CE from HDL donor to LDL acceptor particles; format: biochemical
T1 construct: made in house; host or cells: CHO cells (serum-free conditioned medium)
T1 sequence (P11597 18-493): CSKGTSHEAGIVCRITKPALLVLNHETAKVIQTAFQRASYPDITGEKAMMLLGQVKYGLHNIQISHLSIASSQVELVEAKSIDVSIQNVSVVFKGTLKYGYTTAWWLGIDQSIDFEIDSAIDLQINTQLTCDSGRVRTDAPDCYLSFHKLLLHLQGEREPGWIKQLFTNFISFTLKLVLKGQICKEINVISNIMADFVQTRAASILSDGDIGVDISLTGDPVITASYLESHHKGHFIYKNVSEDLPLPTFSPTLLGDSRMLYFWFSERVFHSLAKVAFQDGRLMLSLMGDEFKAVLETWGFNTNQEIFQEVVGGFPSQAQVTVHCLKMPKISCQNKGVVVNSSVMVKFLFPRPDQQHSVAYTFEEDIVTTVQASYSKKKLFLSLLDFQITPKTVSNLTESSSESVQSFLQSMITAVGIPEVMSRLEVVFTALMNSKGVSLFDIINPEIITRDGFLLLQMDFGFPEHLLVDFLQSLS
In short: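 Transfer of radiolabelled cholesteryl ester from HDL to LDL was followed over 2 h at 37 °C in Tris buffer (pH 7.4, 150 mM NaCl, 2 mM EDTA, 1% BSA), using CETP secreted by transfected CHO cells. Radioactivity in dextran sulfate/Mg-precipitated LDL was measured by scintillation counting, giving IC50.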

[1] = IC50(μm), 50% inhibition of [3H]CE transfer from HDL to LDL, 2 hours at 37° C.
[2] = 50% inhibition of [3H]CE transfer from HDL to LDL, 2 hours at 37° C., read-out: IC50(μm)
[3] = IC50, Table 6, compounds of formula T-6
[4] = Table 7, compounds of formula T-7, read-out: IC50
[5] = Table 6, compounds of formula T-6, read-out: IC50

Structure (SMILES)	IC50 (CETP; [1]) [µM]	melting point [°C]	other results
COC(=O)c1c(C(F)F)nc(C(F)(F)F)c(C(=O)Sc2cc(C(C)(C)C)cc(C(C)(C)C)c2)c1CC(C)C [Compound 151, Methyl 2-(Difluoromethyl)-5-{[(3,5-di-t-butylphenyl)thio]carbonyl}-4-(2-methylpropyl)-6-(trifluoromethyl)-3-pyridinecarboxylate]	60	102.5 to 108.5	–
COC(=O)c1c(C(F)F)nc(C(F)(F)F)c(C(=O)Oc2cc(OC)c(OC)c(OC)c2Cc2ccc(F)cc2)c1CC(C)C [Compound 171, 3-Methyl 5-[2-(4-Fluorobenzyl)-3,4,5-(trimethoxy)phenyl]2-(Difluoromethyl)-4-(2-methylpropyl)-6-(trifluoromethyl)-3,5-pyridicarboxylate]	–	131.5 to 133.5	IC50 (CETP; [2]): 70 µM
COC(=O)c1c(C(F)F)nc(C(F)(F)F)c(C(=O)Oc2cc(C)cc(C)c2)c1CC(C)C [Compound 174, 3-Methyl 5-(3,5-Dimethylphenyl) 2-(Difluoromethyl)-4-(2-methylpropyl)-6-(trifluoromethyl)-3,5-pyridicarboxylate]	60	90.5 to 94	–
COC(=O)c1c(C(F)F)nc(C(F)(F)F)c(C(=O)Sc2ccccc2OC)c1CC(C)C [Compound 153, Methyl 2-(Difluoromethyl)-4-(2-methylpropyl)-5-{[(2-methoxyphenyl)thio]carbonyl}-6-(trifluoromethyl)-3-pyridinecarboxylate]	100	100 to 102	–
COC(=O)c1c(C(F)F)nc(C(F)(F)F)c(C(=O)Oc2c(C)cc([N+](=O)[O-])cc2C)c1CC(C)C [Compound 176, 3-Methyl 5-(2,6-Dimethyl-4-nitrophenyl) 2-(Difluoromethyl)-4-(2-methylpropyl)-6-(trifluoromethyl)-3,5-pyridicarboxylate]	–	96 to 97	–
COC(=O)c1c(C(F)F)nc(C(F)(F)F)c(C(=O)Sc2ccc(C)cc2C)c1CC(C)C [Compound 158, Methyl 2-(Difluoromethyl)-5-{[(2,4-dimethyl-phenyl)thio]carbonyl}-4-(2-methylpropyl)-6-(trifluoromethyl)-3-pyridinecarboxylate]	100	96 to 99	–
COC(=O)c1c(C(F)F)nc(C(F)(F)F)c(C(=O)Oc2ccc(Cl)cc2)c1CC(C)C [Compound 173, 3-Methyl 5-(4-Chlorophenyl) 2-(Difluoromethyl)-4-(2-methylpropyl)-6-(trifluoromethyl)-3,5-pyridicarboxylate]	45	81.5 to 82.5	–
COC(=O)c1c(C(F)F)nc(C(F)(F)F)c(C(=O)Oc2ccc(C)cc2C)c1CC(C)C [Compound 177, 3-Methyl 5-(2,4-Dimethylphenyl) 2-(Difluoromethyl)-4-(2-methylpropyl)-6-(trifluoromethyl)-3,5-pyridicarboxylate]	–	95 to 99	IC50 (CETP; [2]): 70 µM
COC(=O)c1c(C(F)F)nc(C(F)(F)F)c(C(=O)Sc2ccc(C(C)(C)C)cc2)c1CC(C)C [Compound 156, Methyl 5-{[(4-t-Butylphenyl)thio]carbonyl}-2-(difluoromethyl)-4-(2-methylpropyl)-6-(trifluoromethyl)-3-pyridinecarboxylate]	–	60.5 to 62.5	IC50 (CETP; [2]): 100 µM
COC(=O)c1c(C(F)F)nc(C(F)(F)F)c(C(=O)Sc2cc(Cl)ccc2Cl)c1CC(C)C [Compound 163, Methyl 5-{[(2,5-Dichlorophenyl)thio]carbonyl}-2-(difluoromethyl)-4-(2-methylpropyl)-6-(trifluoromethyl)-3-pyridinecarboxylate]	65	112.5 to 113.5	–
COC(=O)c1c(C(F)F)nc(C(F)(F)F)c(C(=O)Sc2cccc(OC)c2)c1CC(C)C [Compound 154, Methyl 2-(Difluoromethyl)-4-(2-methylpropyl)-5-{[(3-methoxyphenyl)thio]carbonyl}-6-(trifluoromethyl)-3-pyridinecarboxylate]	100	87 to 88.5	–
COC(=O)c1c(C(F)F)nc(C(F)(F)F)c(C(=O)Sc2ccc(F)cc2Cc2ccc(F)cc2)c1CC(C)C [Compound 161, Methyl 2-(Difluoromethyl)-4-(2-methylpropyl)-5-{[(2-(4-fluorobenzyl)-4-fluorophenyl)thio]carbonyl}-6-(trifluoromethyl)-3-pyridinecarboxylate]	–	105 to 107	IC50 (CETP; [2]): 70 µM
COC(=O)c1c(C(F)F)nc(C(F)(F)F)c(SC(=O)c2c(C(F)(F)F)nc(C(F)F)c(C(=O)OC)c2CC(C)C)c1CC(C)C [Compound 183, Methyl 5-{[2-(Difluoromethyl)-4-(2-methylpropyl)-3-(methoxycarbonyl)-6-(trifluoromethyl)-5-pyridyl]carbonylthio}-2-(difluoromethyl)-4-(2-methylpropyl)-6-(trifluoromethyl)-3-pyridinecarboxylate]	–	–	IC50 (CETP; IC50, Table 5, compounds of formula T-5): 50 µM
CCOC(=O)c1c(C(F)(F)F)nc(C(F)F)c(C(F)c2ccc(Cl)cc2)c1-c1ccc(F)cc1 (centres unmarked) [Compound 250]	–	–	IC50 (CETP; Table 8, read-out: IC50): 40 µM
O=Cc1c(C(F)F)nc(C(F)(F)F)c(C(=O)c2ccc(Cl)cc2)c1-c1ccccc1 [Compound 293]	–	–	IC50 (CETP; Table 8, read-out: IC50): 10.2 µM
COC(=O)c1c(C(F)F)nc(C(F)(F)F)c(C(=O)Oc2ccccc2C(C)C)c1CC(C)C [Compound 175, 3-Methyl 5-(2-Isopropylphenyl) 2-(Difluoromethyl)-4-(2-methylpropyl)-6-(trifluoromethyl)-3,5-pyridicarboxylate]	> 100	–	–
COC(=O)c1c(C(F)F)nc(C(F)(F)F)c(CSc2nccn2C)c1CC(C)C [Compound 188, Methyl 5-[(1-Methylimidazol-2-yl)thiomethyl]-2-(difluoromethyl)-4-(2-methylpropyl)-6-(trifluoromethyl)-3-pyridinecarboxylate]	–	–	CE transferred (CETP; @ 100 μm, footnotes A and B of Table 6): ^A90% CE transferred @ 100 μm.; IC50 (CETP; [3]): > 100 µM
COC(=O)c1c(C(F)F)nc(C(F)(F)F)c(SCSC)c1CC(C)C [Compound 33, Methyl 2-(Difluoromethyl)-4-(2-methylpropyl)-5-(methylthiomethylthio)-6-(trifluoromethyl)-3-pyridinecarboxylate]	45	–	–
COC(=O)c1c(C(F)F)nc(C(F)(F)F)c(CSc2ccc([N+](=O)[O-])cc2)c1CC(C)C [Compound 198, Methyl 5-[(4-Nitrophenyl)thiomethyl]-2-(difluoromethyl)-4-(2-methylpropyl)-6-(trifluoromethyl)-3-pyridinecarboxylate]	–	–	IC50 (CETP; [3]): 7 µM
COC(=O)c1c(C(F)F)nc(C(F)(F)F)c(SCc2ccc3ccccc3n2)c1CC(C)C [Compound 241, Methyl 5-[(2-quinolinyl)methylthio]-2-(difluoromethyl)-4-(2-methylpropyl)-6-(trifluoromethyl)-3-pyridinecarboxylate]	–	–	IC50 (CETP; [4]): 50 µM
COC(=O)c1c(C(F)F)nc(C(F)(F)F)c(C(=O)SC)c1CC(C)C [Compound 69]	65	–	–
CCOC(=O)c1c(C(F)(F)F)nc(C(F)(F)F)c(C#N)c1OCC [Compound 64]	–	–	IC50 (CETP; [2]): 60 µM
COC(=O)c1c(C(F)F)nc(C(F)(F)F)c(CSc2cc(C(C)(C)C)cc(C(C)(C)C)c2)c1CC(C)C [Compound 187, Methyl 5-[(3,5-Di-t-butylphenyl)thiomethyl]-2-(difluoromethyl)-4-(2-methylpropyl)-6-(trifluoromethyl)-3-pyridinecarboxylate]	–	–	IC50 (CETP; [5]): 40 µM
CCOC(=O)c1c(Sc2ccccc2)cc(C(F)(F)F)nc1C(F)(F)F [Compound 23]	–	–	IC50 (CETP; [2]): 40 µM
COC(=O)c1c(C(F)F)nc(C(F)(F)F)c(C(OC)c2ccns2)c1CC(C)C (centres unmarked) [Compound 34, Methyl 2-(Difluoromethyl)-5-[(methoxy)isothiazol-5-ylmethyl]-4-(2-methylpropyl)-6-(trifluoromethyl)-3-pyridinecarboxylate]	–	–	IC50 (CETP; [2]): 45 µM
COC(=O)c1c(C(F)F)nc(C(F)(F)F)c(SCc2cccc(OC)c2)c1CC(C)C [Compound 231]	–	–	IC50 (CETP; IC50, Table 7, compounds of formula T-7): 50 µM
COC(=O)c1c(C(F)F)nc(C(F)(F)F)c(SCc2ccc(Cl)cc2Cl)c1CC(C)C [Compound 237]	–	–	IC50 (CETP; [4]): 30 µM
COC(=O)c1c(C(F)F)nc(C(F)(F)F)c(CSc2ccc3ccccc3n2)c1CC(C)C [Compound 192, Methyl 5-[(Quinolin-2-yl)thiomethyl]-2-(difluoromethyl)-4-(2-methylpropyl)-6-(trifluoromethyl)-3-pyridinecarboxylate]	–	–	IC50 (CETP; [5]): 40 µM
COC(=O)c1c(C(F)F)nc(C(F)(F)F)c(CSc2nccc(C)n2)c1CC(C)C [Compound 197, Methyl 5-[(4-Methylpyrimidin-2-yl)thiomethyl]-2-(difluoromethyl)-4-(2-methylpropyl)-6-(trifluoromethyl)-3-pyridinecarboxylate]	–	–	IC50 (CETP; [5]): 60 µM
